Assay results as given in ChEMBL document CHEMBL1154982, “Sesquiterpene lactones from Scorzonera austriaca” (J Nat Prod, 2010).
Active and inactive are the calls of the source. No cut-off for these calls is given here.

Assays:
Type in all cases: functional, cell-based
K562 [1] = assay: Cytotoxicity against human adriamycin resistant K562 cells by MTT assay
HepG2 = assay: Cytotoxicity against human HepG2 cells by MTT assay
K562 [2] = assay: Cytotoxicity against human K562 cells by MTT assay
BGC-823 = assay: Cytotoxicity against human BGC823 cells by MTT assay

SMILES | Activity (K562 [1]) | Activity (HepG2) | Activity (K562 [2]) | Activity (BGC-823) | IC50 (K562 [2]) [µM]
CC1=CC(=O)C2=C(COC(=O)CC(C)C)C[C@H](O)[C@@H]3[C@H](OC(=O)[C@H]3C)[C@@H]12 | inactive | inactive | inactive | inactive | –
C=C1[C@@H]2[C@H]3OC(=O)[C@@H](CNCC4CCC(=O)O4)[C@@H]3CCC(=C)[C@@H]2C[C@@H]1O[C@@H]1O[C@H](CO)[C@@H](O)[C@H](O)[C@H]1O (stereo partly specified) | inactive | inactive | inactive | inactive | –
C=C1[C@@H]2[C@H]3OC(=O)[C@@H](CNCC4CCC(=O)O4)[C@@H]3CCC(=C)[C@@H]2C[C@@H]1O (stereo partly specified) [SCORZOAUSTRIACIN] | inactive | inactive | – | inactive | 11.3
CC1=CC(=O)C2=C(COC(=O)CC(C)C)C[C@H](OS(=O)(=O)O)[C@@H]3[C@H](OC(=O)[C@H]3C)[C@@H]12 | inactive | inactive | inactive | inactive | –
